Consider eight substances from patent US7695923B2, “CFTR polypeptides methods to overcome biosynthetic misprocessing” (Mayo Foundation for Medical Education and Research, priority 1999, dated 2010).

The subject of series [1] is BHK cells. Kind of series: cAMP stimulated 36Cl- efflux from CFTR expressing cells. The following applies: stimulation with IBMX, Forskolin, dibutyryl cyclic AMP. In kind it is cell-based, Baby hamster. The procedure:
Wild-type and ΔF508 CFTR expressing cells with each of the individual R[…]K substitutions, or all four lysine substitutions were grown to confluence in six well culture dishes. The cells were washed with a modified Ringer's buffer solution (136 mM NaNO3, 3 mM KNO3, 2 mM Ca(NO3)2, 2 mM Mg(NO3)2, 10 mM glucose and 20 mM HEPES, pH 7.4) and loaded for 60 min at room temperature with the same buffer supplemented with 1 μCi Na^36Cl (Amersham) in a volume of 0.5 ml per well. Wells were then washed three times at one min intervals. Samples (0.5 ml) were then collected at 1 minute intervals for scintillation counting with stimulation occurring at time 0 by adding buffer containing 1 mM IBMX, 10 μM Forskolin and 100 μM dibutyryl cyclic AMP. The 0.5 ml samples were collected into 24 well Top Count plates (Packard) and 1 ml of Microcint 40 scintillation cocktail (Packard) was added. ^36Cl^− radioactivity was determined in a Packard Top Count scintillation counter.

Series [2] has as its system CFTR chloride channels. Kind of series: Single CFTR Cl- channel recording in planar lipid bilayers. In kind it is biochemical, human. The following applies: for Conductance: 300 mM Tris-HCl; for Conductance / Long mean closed time τc2 / Mean open time τ0 / Short mean closed time τc1: -75 mV, 2 mM MgATP; for open probability: 25° C. As to the method: (§1) To further characterize the Cl^− channel activity, membrane vesicles were isolated from cells expressing wild-type, wild-type/4RK and ΔF508/4RK CFTR, fused with planar lipid bilayers and single channels were recorded (Aleksandrov, A. A., and Riordan, J. R. (1998) FEBS Lett. 431:97-101). Vesicles were prepared and phosphorylated with PKA as described previously (Aleksandrov and Riordan, 1998, supra). Briefly, planar lipid bilayers were painted onto a 0.2 mm hole drilled in a Teflon cup using a phospholipid solution in n-decane containing a 2:1 mixture of 1-palmitoyl-2-oleoyl-sn-glycero-3-phosphoethanolamine and 1-palmitoyl-2-oleoyl-sn-glycero-3-phosphoserine (20 mg/ml). The lipid bilayer separated 1.0 ml of solution in the Teflon cup (cis-side) from 4.0 ml of solution in an outer glass chamber (trans-side). Both chambers were magnetically stirred and thermostated. Heating and temperature control were established using a Temperature Control System TC2BIP (Cell MicroControls). Electrical contact with the solutions was provided by Ag/AgCl electrodes through agar bridges filled with 0.5 M KCl. The membrane potential difference was measured as the difference between trans and cis side potentials. The trans side was grounded and electrical measurements of the single channel current were performed under voltage clamp conditions using an Axopatch 200B (Axon Instruments) amplifier. The output signal was filtered with an 8-pole low pass Bessel Filter LPBF-48DG (NPI Electronic GmbH) with cut off frequency of 50 Hz and recorded on magnetic tape using a VR-10B (Instrutech Corp.) digital data recorded on a Sony SLV-440 VCR. For data analysis, the signal was digitized (Digidata 1200; Axon Instruments) with a sampling rate of 500 Hz and analyzed using pCLAMP 6.0 (Axon Instruments) software. Origin 4.0 (Microcal) software was used to fit all points histograms by multi-peak Gaussians. Membrane vesicles were prephosphorylated with PKA and added as a concentrated stock solution to the cis side to obtain a final protein concentration of 10-15 μg/ml. Measurements were made in symmetrical salts solutions containing, in mM: 300 Tris-HCl, 2 MgCl, 1 EGTA, pH=7.2, at a membrane potential of −75 mV. MgATP (2 mM) was added to the cis side only. Under these conditions any cationic channels present in the membrane vesicles are invisible and CFTR chloride channels appeared only after fusion of vesicles with an inside out orientation. Conductances for wild-type, wild-type/4RK and ΔF508/4RK were 10.7, 10.8, and 10.7 pS, respectively. Mean open times τ0 were 230, 1400, and 700 msec respectively. Short mean closed times τc1 were 10 msec in each case. Long mean closed times τc2 were 680, 2000, and 2800 msec, respectively. Conductance as a function of Cl^− concentration and temperature as well as anion selectivity of the CFTR ion channel were tested in control experiments showing good agreement with published data (Tabcharani, J. A et al. (1997) J. Gen. Physiol. 110:341-54).

Series [3] concerns BHK cells. As to the kind of experiment: 35S-methionine pulse chase of CFTR maturation. In kind it is cell-based, Baby hamster. The settings on record: for radioactivity of pulse-labeled immature band present in mature band (conversion of precursor to product): after 4 h of chase, electronic autoradiography; for maturation at the end of the pulse: end of the pulse (0 min); for conversion of precursor to mature endoH resistant form during chase: pulse chase. The procedure:
Pulse chase studies were performed to determine the rate at which maturation occurred in the arginine-framed triplet substituted wild-type and ΔF508 CFTR polypeptides (FIG. 2). […] Cells were lysed at the end of the labeling period (0 chase time) or were further incubated in complete medium containing 5% fetal bovine serum and 1 mM methionine for the indicated times (chase). Cells were collected and lysed with the NP40 lysis buffer described above and centrifuged at 15,000×g for 15 min at 4° C. to obtain a soluble supernatant which was incubated overnight with the M3A7 primary antibody. Protein G-agarose (Gibco-BRL) was then used to remove the complexes formed which were washed four times with RIPA buffer, dissolved in electrophoresis sample buffer, and subsequently fractionated on SDS-7% acrylamide gels. Following fractionation, the gels were fixed in 30% methanol and 10% acetic acid, equilibrated in 1M sodium salicylate and dried for fluorography. Electronic autoradiography was performed with a Packard Instant Imager. […]

Series [4] deals with BHK cells. As to the kind of experiment: Indirect immunofluorescence localization of CFTR with M3A7. The format is cell-based, Baby hamster. The following applies: M3A7 staining, permeabilized cells. As to the method:
Immunofluorescence microscopy in cells expressing ΔF508 CFTR was performed using the highly specific monoclonal antibody, M3A7 (Kartner et al., 1992, supra). Briefly, transformed cells were grown on coverslips, fixed in 70% cold methanol at −20° C. for 10 minutes, blocked using 1% BSA and 5% normal rabbit serum in PBS and were permeabilized by incubating in PBS+0.1% saponin for 1 h at 4° C. CFTR was detected by incubation with 10 μg/ml of M3A7 primary antibody for 60 min at room temperature. Rhodamine linked rabbit anti-mouse secondary antibody (DAKO) was diluted 1:50 in the same blocking solution for a further 1 h incubation. Photomicrographs were made using a Diagnostic Instruments Spot Cam digital camera on a Nikon Microphot-FXA microscope.

The test system of series [5] is BHK cells. Kind of series: Western blot of BHK cell extracts with M3A7 antibody, with endoglycosidase H digestion. The following applies: ΔF508 CFTR background; for mature bands of lower mobility on Western blot: steady state, BHK cell extracts. The format is cell-based, Baby hamster. As to the method: Baby hamster kidney cells (BHK) cells grown at 37° C. in 5% CO2 were employed as hosts for CFTR expression as described previously (Loo et al. (1998) EMBO J. 17:6879-6887; and Seibert, F. S et al. (1995) J. Biol. Chem. 270:2158-2162). Subconfluent BHK cells were transformed with the above wild-type or ΔF508 CFTR constructs using calcium phosphate precipitation (Chen, C., and Okayama, H. (1987) Mol. Cell. Biol. 7: 2745-2752). After growth in selective media containing 500 μM methotrexate, individual colonies were picked and amplified in the same selective media.
BHK cells were grown, collected and then lysed with 1% SDS; the DNA was sheared by cycling through a 22 gauge needle. Protein lysate (20 μg) from the sample were then subjected to SDS-PAGE on 7% polyacrylamide gels. Protein was electroblotted from the gel to nitrocellulose membrane and the membrane was probed with a mouse anti-CFTR monoclonal antibody, M3A7 (Kartner, N. et al. (1992) Nat. Genetics 1:321-7). Chemiluminescent detection was performed according to the manufacturer's recommendations (Pierce).
For endoglycosidase H treatment, cell lysates were diluted with 10 volumes of buffer (50 mM sodium acetate, pH 5.3, 0.5% Nonidet P-40, 1% β-mercaptoethanol plus a protease inhibitor mixture: 2 μg/ml aprotinin, 120 μg/ml benzamidine, […], 1 μg/ml leupepetin and 50 μg/ml pefabloc). This yielded a final SDS concentration of 0.1%. Samples were then incubated for 4 hr at 37° C. with 10 mU of endoglycosidase H (Boehringer Mannheim). The reactions were stopped by addition of 4 volumes of cold ethanol (−20° C.) to precipitate the proteins. Precipitated proteins were then resuspended in gel loading dye and subjected to SDS-PAGE and immunoblotting as above.
A general note: Immunoblotting shows a protein as a band on a membrane.

Series [6] deals with T1, CFTR chloride channels (Homo sapiens, UniProt P13569, DEL508-508/V470M).
T1 construct: These five fragments were ligated together to generate full length CFTR cDNA in pNUT; expressed in transfected cells; host or cells: BHK (baby hamster kidney) cells, stably transfected with pNUT-CFTR constructs; membrane vesicles fused with planar lipid bilayers
As to the kind of experiment: Single CFTR Cl- channel recording in planar lipid bilayers. The format is biochemical. The settings on record: vesicles from BHK cells. The procedure:
as §1

The subject of series [7] is BHK cells. Kind of series: Cell surface biotinylation of CFTR on intact cell monolayers. In kind it is cell-based, Baby hamster. As to the method:
For cell surface biotinylation studies, cells grown to about 90% confluency were treated with 2 mM sodium butyrate for 18 h to augment CFTR expression. Dishes of cells were then placed on ice in a cold room for 30 minutes and all subsequent steps were performed. Cells washed with PBS containing 0.1 mM CaCl2 and 1.0 mM MgCl2, were labeled using 3 ml of 1 mg/ml EZ-Link Sulfo-NHS-SS-biotin (Pierce) in PBS, pH 8.0 for 30 minutes. Following washes in PBS+1% BSA and PBS, cells were incubated for 30 minutes in NP40 lysis buffer (0.09% NP40, 150 mM NaCl, 10 mM NH4MoO4, 50 mM Tris-HCl, pH 7.4), scraped and transferred to microfuge tubes. Insoluble materials were removed by centrifugation. Biotinylated proteins were then precipitated by incubation overnight with 50 μl of packed immobilized streptavidin beads (Pierce). Beads were washed with RIPA buffer (0.1% SDS, 1% DOC, 1% Triton X-100, 150 mM NaCl, 50 mM Tris-Hcl, pH 7.4) and proteins eluted with gel sample buffer for electrophoresis and Western blotting with M3A7 as detailed above.

Entries after “also recorded” stand apart in the source; their conditions may differ.

T1 sequence (P13569 with tags, fused parts or gaps V470M/DEL508-508): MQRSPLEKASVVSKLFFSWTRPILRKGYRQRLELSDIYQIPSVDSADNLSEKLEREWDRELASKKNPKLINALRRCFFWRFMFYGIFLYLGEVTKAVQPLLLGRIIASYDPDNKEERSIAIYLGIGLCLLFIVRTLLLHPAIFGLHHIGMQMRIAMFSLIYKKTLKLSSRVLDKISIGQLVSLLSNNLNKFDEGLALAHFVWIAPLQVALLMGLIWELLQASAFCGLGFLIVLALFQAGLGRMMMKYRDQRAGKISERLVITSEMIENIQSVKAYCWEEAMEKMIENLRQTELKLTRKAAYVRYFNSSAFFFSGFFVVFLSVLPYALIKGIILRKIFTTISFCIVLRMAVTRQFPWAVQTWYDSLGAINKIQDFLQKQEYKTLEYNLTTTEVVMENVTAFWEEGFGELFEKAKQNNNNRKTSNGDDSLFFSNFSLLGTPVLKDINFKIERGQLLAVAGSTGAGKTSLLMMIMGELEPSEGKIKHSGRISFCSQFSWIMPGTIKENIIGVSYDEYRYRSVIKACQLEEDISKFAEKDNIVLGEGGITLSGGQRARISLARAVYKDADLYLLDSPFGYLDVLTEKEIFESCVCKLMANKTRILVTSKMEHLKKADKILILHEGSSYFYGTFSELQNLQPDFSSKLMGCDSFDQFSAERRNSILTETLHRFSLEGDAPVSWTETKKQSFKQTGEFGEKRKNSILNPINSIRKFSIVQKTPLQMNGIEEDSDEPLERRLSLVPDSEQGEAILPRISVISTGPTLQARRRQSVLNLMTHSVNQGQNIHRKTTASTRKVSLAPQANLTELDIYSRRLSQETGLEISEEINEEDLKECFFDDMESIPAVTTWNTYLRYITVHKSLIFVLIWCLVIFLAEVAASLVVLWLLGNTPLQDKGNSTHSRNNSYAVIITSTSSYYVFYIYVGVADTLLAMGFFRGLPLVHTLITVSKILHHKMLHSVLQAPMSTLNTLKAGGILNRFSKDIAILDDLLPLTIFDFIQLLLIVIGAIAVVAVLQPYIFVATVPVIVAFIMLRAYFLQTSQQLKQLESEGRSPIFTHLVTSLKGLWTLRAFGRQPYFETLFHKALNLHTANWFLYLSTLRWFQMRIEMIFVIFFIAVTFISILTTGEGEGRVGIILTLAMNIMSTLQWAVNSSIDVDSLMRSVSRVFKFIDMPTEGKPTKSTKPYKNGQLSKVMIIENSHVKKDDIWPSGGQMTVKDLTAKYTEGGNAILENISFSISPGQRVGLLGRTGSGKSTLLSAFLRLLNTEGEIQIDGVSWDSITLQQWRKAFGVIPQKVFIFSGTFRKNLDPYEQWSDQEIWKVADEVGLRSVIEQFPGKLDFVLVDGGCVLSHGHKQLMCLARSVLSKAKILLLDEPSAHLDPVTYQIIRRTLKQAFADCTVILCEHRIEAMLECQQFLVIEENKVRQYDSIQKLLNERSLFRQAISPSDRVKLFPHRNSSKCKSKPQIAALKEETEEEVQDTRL

Regarding “R766K: ΔF508 CFTR in which arginine 766 has been substituted with lysine”, the “cAMP stimulated 36Cl- efflux rate” value with BHK cells [1] is given as “No detectable increase in efflux rate”.

For “wild-type CFTR: full-length human CFTR expressed from pNUT vector in BHK cells [reference compound]”, in the series on CFTR chloride channels [2], the Conductance is given as 10.7 pS, the open probability was approximately 0.25, the “Long mean closed time τc2” value turned out to be 680 ms and the “Mean open time τ0” value was found to be 230 ms. The “Short mean closed time τc1” value in the series with CFTR chloride channels [2] was 10 ms. Besides, in the series with BHK cells [3], the “radioactivity of pulse-labeled immature band present in mature band (conversion of precursor to product)” value is approximately 30%, the “maturation at the end of the pulse” value was “no maturation” and the “conversion of precursor to mature endoH resistant form during chase” value is recorded as “begins within an hour”. Further, in the series on BHK cells [4], the “CFTR localization by immunofluorescence” value is “strong uniform staining of mature CFTR over the entire cell surface”.

In the case of “R516K: ΔF508 CFTR in which arginine 516 has been substituted with lysine”, the “cAMP stimulated 36Cl- efflux rate” value with BHK cells [1] is listed as “No detectable increase in efflux rate”.

“wild-type/4RK: wild-type CFTR in which four arginines (R29K, R516K, R555K, R766K) have been substituted with lysine”: in the series on CFTR chloride channels [2], the Conductance was determined as 10.8 pS, the open probability is given as approximately 0.61, the “Long mean closed time τc2” value amounted to 2000 ms and the “Mean open time τ0” value was determined as 1400 ms. In addition, the “Short mean closed time τc1” value in the series with CFTR chloride channels [2] was 10 ms. Also, in the series with BHK cells [3], the “maturation at the end of the pulse” value is “already evident” and the “conversion of precursor to mature endoH resistant form during chase” value is listed as “more rapid maturation”.

Regarding “R555K: ΔF508 CFTR in which arginine 555 has been substituted with lysine”, the “cAMP stimulated 36Cl- efflux rate” value with BHK cells [1] is “No detectable increase in efflux rate”.

For the substance “ΔF508/R29K: ΔF508 CFTR in which arginine 29 has been substituted with lysine”, in the series on BHK cells [5], the “endoglycosidase H sensitivity of the large bands” value is given as “Endoglycosidase-H insensitivity” and the “mature bands of lower mobility on Western blot” value was “bands of lower mobility are produced”. Also, in the series with BHK cells [1], the “cAMP stimulated 36Cl- efflux rate” value is “low rates of ^36Cl^− efflux occurred at delayed times after stimulation”.

On to “ΔF508 CFTR: export-incompetent cystic fibrosis causing CFTR mutant lacking phenylalanine 508”, for which, in the series with CFTR chloride channels [6], the “detection of CFTR-like single channels” value is recorded as “never been able to detect CFTR-like single channels”. For the same substance, the “conversion of precursor to mature endoH resistant form during chase” value in the series with BHK cells [3] is “no conversion; also recorded: fails to mature even after two hours”. For the same substance, the “cAMP stimulated 36Cl- efflux rate” value in the series with BHK cells [1] was “No detectable increase in efflux rate”. The “CFTR localization by immunofluorescence” value in the series with BHK cells [4] is listed as “Perinuclear staining only”.

Regarding “ΔF508/4RK: ΔF508 CFTR having all four arginines (29, 516, 555, 766) substituted with lysine”, the “accessibility of mature band to surface biotinylation” value in the series with BHK cells [7] is listed as “accessible to the impermeant amino reactive biotinylation reagent”. In the series with CFTR chloride channels [2], the Conductance is 10.7 pS, the “Long mean closed time τc2” value came out at 2800 ms, the “Mean open time τ0” value amounted to 700 ms and the “Short mean closed time τc1” value stood at 10 ms. Besides, in the series with BHK cells [3], the “radioactivity of pulse-labeled immature band present in mature band (conversion of precursor to product)” value is given as “approximately 10%” and the “conversion of precursor to mature endoH resistant form during chase” value was “readily apparent”. Moreover, in the series on BHK cells [5], the “endoglycosidase H sensitivity of the large bands” value is “Endoglycosidase-H insensitivity” and the “mature bands of lower mobility on Western blot” value was “bands of lower mobility are produced”. Moreover, in the series with BHK cells [1], the “cAMP stimulated 36Cl- efflux rate” value is recorded as “more than half as rapid as those from cells expressing wild-type CFTR”. For the same substance, the “CFTR localization by immunofluorescence” value in the series on BHK cells [4] is given as “extension of the staining more peripherally”.
